From paper PMC8256334, “Simultaneous Determination of a Novel PD-L1 Inhibitor, IMMH-010, and Its Active Metabolite, YPD-29B, in Rat Biological Matrices by Polarity-Switching Liquid Chromatography-Tandem Mass Spectrometry: Application to ADME Studies” (Frontiers in Pharmacology, 2021)
Where two headings read alike, the source gives them in different places.

Key:
[1] = Tissue distribution study in rats; type: in vivo, Sprague-Dawley rats; details: for concentration in heart / concentration in kidney / concentration in liver / concentration in lung / concentration in lymph / concentration in plasma / concentration in spleen / concentration in thymus: n = 5
Method: (§1) Female Sprague-Dawley rats (200 ± 20 g, Vital River, Beijing, China) were kept in standard environmental conditions. Rats were fasted overnight with free access to water and randomly assigned to different groups before the experiments. All animal protocols were approved by the Institute Animal Care and Welfare Committee of the Institute of Materia Medica, Chinese Academy of Medical Sciences and Peking Union Medical College.
The tissue distribution study was performed 15 min, 30 min, 4 h and 12 h after i. g. administration of 10 mg/kg IMMH-010 maleate. Blood was collected and centrifuged at 5,000 rpm for 10 min. The heart, liver, brain, spleen, lung, kidney, adrenal gland, thymus, and lymph were harvested immediately. The tissues were washed with normal saline and blotted dry with filter paper. All samples were stored at -20°C before analysis.

[2] = PK study in rats after single i.g. administration of IMMH-010 maleate; type: in vivo, Sprague-Dawley rats; details: for AUC(0-inf) / AUC(0-t) / Cmax / MRT last / MRT inf / Tmax / half-life: female, Sprague-Dawley, po; for MRT last: read-out: MRT(0-t); for MRT inf: read-out: MRT(0-∞); for Tmax: median (range); for half-life: rat, plasma
Text: as §1
IMMH-010 maleate was suspended in 0.5% sodium carboxymethyl cellulose. The rats were intragastrically (i.g.) administered IMMH-010 maleate at doses of 10, 30, and 100 mg/kg. Blood samples were withdrawn via the orbital plexus into heparinized tubes with NaF at 5, 15, and 30 min and 1, 2, 4, 6, 8, 12, 24, 36, and 48 h. Plasma was immediately prepared by centrifugation at 5,000 rpm for 10 min. All samples were stored at −20°C prior to analysis. The PK parameters of IMMH-010 and YPD-29B were calculated using the Linear Trapezoidal with Linear Interpolation method by WinNonlin software version 6.3 based on a noncompartmental model (Pharsight Corporation, Mountain View, United States ).

[3] = time 0.5 (30 min) after i.g. 10 mg/kg IMMH-010 maleate
[4] = time 4 (4 h) after i.g. 10 mg/kg IMMH-010 maleate
[5] = time 0.25 (15 min) after i.g. 10 mg/kg IMMH-010 maleate
[6] = rat plasma, single i.g. IMMH-010 maleate 10 mg/kg, mean ± SD, n = 5
[7] = rat plasma, single i.g. IMMH-010 maleate 30 mg/kg, mean ± SD, n = 5
[8] = rat plasma, single i.g. IMMH-010 maleate 100 mg/kg, mean ± SD, n = 5

SMILES: O=C(O)[C@H](CO)NCc1cc(Cl)c(OCc2cccc(-c3ccccc3)c2Br)cc1OCc1cccnc1 [YPD-29B]
- concentration in heart [1, 3]: 39.6 ± 33.7 ng/ml or ng/g
- concentration in heart [1, 4]: BLQ
- concentration in kidney [1, 5]: 64.2 ± 40.4 ng/ml or ng/g
- concentration in kidney [1, 3]: 265 ± 222 ng/ml or ng/g
- concentration in kidney [1, 4]: 168 ± 23 ng/ml or ng/g
- concentration in liver [1, 5]: 1,403 ± 962 ng/ml or ng/g
- concentration in liver [1, 3]: 3,239 ± 2,833 ng/ml or ng/g
- concentration in liver [1, 4]: 195 ± 56 ng/ml or ng/g
- concentration in lung [1, 5]: 35.7 ± 22.8 ng/ml or ng/g
- concentration in lung [1, 3]: 109 ± 104 ng/ml or ng/g
- concentration in lung [1, 4]: 21.4 ± 6.8 ng/ml or ng/g
- concentration in lymph [1, 5]: 51.5 ± 41.0 ng/ml or ng/g
- concentration in lymph [1, 3]: 378 ± 451 ng/ml or ng/g
- concentration in lymph [1, 4]: 44.0 ± 13.9 ng/ml or ng/g
- concentration in plasma [1, 5]: 32.0 ± 25.2 ng/ml or ng/g
- concentration in plasma [1, 3]: 55.7 ± 51.6 ng/ml or ng/g
- concentration in plasma [1, 4]: 4.86 ± 1.39 ng/ml or ng/g
- concentrations in tissues at 12 h ([1]; rat tissues, 12 h after oral 10 mg/kg IMMH-010 maleate): below the LLOQ
- tissues of main distribution ([1]; rats, oral 10 mg/kg IMMH-010 maleate): liver, followed by the lymph, kidney, and lung
- concentration in spleen [1, 5]: 15.1 ± 10.8 ng/ml or ng/g
- concentration in spleen [1, 3]: 48.4 ± 47.9 ng/ml or ng/g
- concentration in spleen [1, 4]: BLQ
- concentration in thymus [1, 5]: BLQ
- concentration in thymus [1, 3]: 2.74 ± 6.12 ng/ml or ng/g
- concentration in thymus [1, 4]: 2.23 ± 4.99 ng/ml or ng/g
- AUC(0-inf) [2, 6]: 110 ± 46.6 ng·h/mL
- AUC(0-t) [2, 6]: 94.3 ± 46.3 ng·h/mL
- Cmax [2, 6]: 63.7 ± 29.1 ng/mL
- MRT last [2, 6]: 1.5 ± 0.4 h
- MRT inf [2, 6]: 2.27 ± 0.96 h
- Tmax ([2]; rat plasma, single i.g. IMMH-010 maleate 10 mg/kg, n = 5): 0.5 h
- AUC(0-inf) [2, 7]: 521 ± 114 ng·h/mL
- AUC(0-t) [2, 7]: 503 ± 110 ng·h/mL
- Cmax [2, 7]: 268 ± 43 ng/mL
- MRT last [2, 7]: 1.55 ± 0.14 h
- MRT inf [2, 7]: 2.06 ± 0.55 h
- Tmax ([2]; rat plasma, single i.g. IMMH-010 maleate 30 mg/kg, n = 5): 0.5 h
- AUC(0-inf) [2, 8]: 1640 ng·h/mL
- AUC(0-t) [2, 8]: 1620 ng·h/mL
- Cmax [2, 8]: 569 ± 72 ng/mL
- MRT last [2, 8]: 2.88 ± 0.89 h
- MRT inf [2, 8]: 3.12 ± 0.87 h
- Tmax ([2]; rat plasma, single i.g. IMMH-010 maleate 100 mg/kg, n = 5): 1 h
- half-life ([2]; 10 mg/kg, rat plasma, single i.g. IMMH-010 maleate 10 mg/kg, mean ± SD, n = 5, read-out: t1/2β (converted)): 1.57 ± 1.08 h
- half-life ([2]; 30 mg/kg, rat plasma, single i.g. IMMH-010 maleate 30 mg/kg, mean ± SD, n = 5, read-out: t1/2β (converted)): 3.65 ± 2.77 h
- half-life ([2]; 100 mg/kg, rat plasma, i.g. IMMH-010 maleate 10, 30 and 100 mg/kg, range over doses, read-out: average plasma elimination half-life (t1/2β)): 1.57 to 3.65 h
- half-life ([2]; 100 mg/kg, rat plasma, single i.g. IMMH-010 maleate 100 mg/kg, mean ± SD, n = 5, read-out: t1/2β (converted)): 3.1 ± 1.76 h
- dose dependence of AUC ([2]; rat plasma, dose range 10–100 mg/kg IMMH-010 maleate, oral): proportional to the dose
- time postdose at which the metabolite could be detected in plasma ([2]; rats, after oral administration of IMMH-010 maleate): 5 min
